ChEMBL document CHEMBL3046075, “Synthesis and antibacterial activity of novel 7-haloanilino-8-nitrofluoroquinolone derivatives” (2012)
≈ marks a conversion by molar mass, not a printed value.

system: Staphylococcus aureus; test: Antibacterial activity against Staphylococcus aureus ATCC 6538 after 24 hr by two-fold serial dilution method; type: functional; settings: ATCC 6538, 24 h

Q: Which MIC does the source give for `O=C(O)c1cn(C2CC2)c2c([N+](=O)[O-])c(Nc3ccccc3F)c(F)cc2c1=O` here?
A: The MIC was 106 µg/mL (≈ 264 µM).

Q: Which MIC does the source give for `O=C(O)c1cn(C2CC2)c2c([N+](=O)[O-])c(Nc3ccccc3)c(F)cc2c1=O` here?
A: The MIC was 11.7 µg/mL (≈ 30.5 µM).

Q: How did the MIC turn out when `O=C(O)c1cn(C2CC2)c2c([N+](=O)[O-])c(Nc3ccccc3Cl)c(F)cc2c1=O` was run?
A: The MIC was 6.7 µg/mL (≈ 16 µM).

Q: Which MIC does the source give for `O=C(O)c1cn(C2CC2)c2c([N+](=O)[O-])c(Nc3cccc(Cl)c3)c(F)cc2c1=O` here?
A: Its MIC is 0.9 µg/mL (≈ 2.15 µM).

Q: Which MIC does the source give for `O=C(O)c1cn(C2CC2)c2c([N+](=O)[O-])c(Nc3ccc(Cl)cc3)c(F)cc2c1=O` here?
A: Its MIC is 6.7 µg/mL (≈ 16 µM).

Q: With `O=C(O)c1cn(C2CC2)c2c([N+](=O)[O-])c(Nc3ccc(F)c(F)c3F)c(F)cc2c1=O` as the compound, how does the MIC read?
A: Its MIC is 39 µg/mL (≈ 89.2 µM).

Q: For `O=C(O)c1cn(C2CC2)c2cc(N3CCNCC3)c(F)cc2c1=O` [CIPROFLOXACIN], which MIC is on record?
A: Its MIC is 2.9 µg/mL (≈ 8.75 µM).

system: Staphylococcus aureus; test: Antibacterial activity against resistant isolates of Staphylococcus aureus after 24 hr by two-fold serial dilution method; type: functional; settings: not given

Q: For `O=C(O)c1cn(C2CC2)c2c([N+](=O)[O-])c(Nc3ccccc3F)c(F)cc2c1=O`, which MIC is on record?
A: Its MIC is 106 µg/mL (≈ 264 µM).

Q: For `O=C(O)c1cn(C2CC2)c2c([N+](=O)[O-])c(Nc3ccccc3Cl)c(F)cc2c1=O`, which MIC is on record?
A: Its MIC is 6.7 µg/mL (≈ 16 µM).

Q: `O=C(O)c1cn(C2CC2)c2c([N+](=O)[O-])c(Nc3cccc(Cl)c3)c(F)cc2c1=O` was tested. Which MIC did it give?
A: The MIC was 7 µg/mL (≈ 16.8 µM).

Q: For `O=C(O)c1cn(C2CC2)c2c([N+](=O)[O-])c(Nc3ccc(Cl)cc3)c(F)cc2c1=O`, which MIC is on record?
A: Its MIC is 9.8 µg/mL (≈ 23.5 µM).

Q: How did the MIC turn out when `O=C(O)c1cn(C2CC2)c2c([N+](=O)[O-])c(Nc3ccc(F)c(F)c3F)c(F)cc2c1=O` was run?
A: Its MIC is 9.8 µg/mL (≈ 22.4 µM).

Q: With `O=C(O)c1cn(C2CC2)c2cc(N3CCNCC3)c(F)cc2c1=O` [CIPROFLOXACIN] as the compound, how does the MIC read?
A: The MIC was 1.4 µg/mL (≈ 4.23 µM).
